{"source": "patent US5229007A", "about": "(priority 1992, dated 1993)", "origin": "cited, not measured here", "key": {"insect": {"test_system": "insect", "conditions": "in vivo"}}, "data": [{"molecule": "C/C=C(\\C)C(=O)O[C@H]1C[C@@H](OC(C)=O)[C@@]2(C(=O)OC)CO[C@H]3[C@@H](O)[C@@](C)([C@]45O[C@@]4(C)[C@H]4C[C@@H]5O[C@@H]5OC=C[C@@]54O)[C@H]4[C@]1(CO[C@]4(O)C(=O)OC)[C@@H]32", "note": "[azadirachtin]", "values": [{"measurement": "insect growth regulator and feeding deterrent activity", "setting": "insect", "result": "potent insect growth regulator and feeding deterrent"}, {"measurement": "stability in alkaline solutions", "setting": "alkaline solutions", "result": "degraded in alkaline solutions"}, {"measurement": "stability at elevated temperatures", "setting": "elevated temperatures", "result": "decomposes at elevated temperatures"}]}]}
